Results published in patent publication US20100093643A1 (priority 2006, published 2010).
Several values for one entry are separate records, joined by “and”; a condition that tells them apart may be missing. Identical values can stand only once. Like-named read-outs stand apart in the source and are kept apart here.

Assays:
[1] = molecular target: T1, peripheral opiate receptors, guinea pig ileum (GPI, predominantly μ-type of opioid receptor) (Cavia porcellus, UniProt A0ACM8Q262); settings: GPI assay
T1 construct: other: guinea pig ileum longitudinal muscle, electrical stimulation; GPI Relative potency, %; other: GPI assay
T1 sequence (A0ACM8Q262 1-400): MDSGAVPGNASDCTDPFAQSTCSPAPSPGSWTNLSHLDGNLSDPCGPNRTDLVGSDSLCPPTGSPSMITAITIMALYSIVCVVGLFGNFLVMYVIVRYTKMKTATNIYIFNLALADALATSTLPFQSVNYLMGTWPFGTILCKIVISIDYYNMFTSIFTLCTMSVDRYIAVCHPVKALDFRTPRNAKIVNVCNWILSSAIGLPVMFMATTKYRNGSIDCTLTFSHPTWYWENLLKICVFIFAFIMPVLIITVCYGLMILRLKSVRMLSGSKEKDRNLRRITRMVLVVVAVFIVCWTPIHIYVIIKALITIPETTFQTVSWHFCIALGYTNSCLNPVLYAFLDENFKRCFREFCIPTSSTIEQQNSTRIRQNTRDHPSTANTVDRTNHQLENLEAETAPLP

[2] = system: peripheral opiate receptors, guinea pig ileum (GPI, predominantly μ-type of opioid receptor); settings: ratio of relative potencies GPI to MVD
[3] = system: peripheral opiate receptors, mouse vas deferens (MVD); assay: MVD bioassay, suppression of electrically induced contraction
Experimental: Brit. J. Pharmacol., 35, 10-28]. The longitudinal muscle of ileum from guinea pig of any sex (weight 350-500 g) was carefully separated from underlying circular muscle and placed into a small bath with Krebs solution at 36° C.
The solution was constantly aerated. A constant load of 0.2 g was applied to the tissue. The tissue was stimulated by means of the ring platinum electrodes by single impulses of […] duration with 0.1 Hz frequency. […] Vas deferens of mice (weight 27 to 30 g) were placed into a bath with modified Krebs solution (not containing magnesium sulphate) at 31° C. The substances under study were dissolved in distilled water. The inhibiting activity of the compounds was determined by accumulating doses, adding increasing concentrations of the compounds without washing. The activity of the preparations was expressed as IC50 in nmol/l. The results obtained in 8-10 tests were statistically processed using Student's criterion.

CD-1 male mice = assay: Analgesic activity in vivo, hot plate method; parameters: species or system mouse
Experimental: Male Swiss albino mice (CD1), weighing 20-22 g were used throughout the study. The animals were housed in solid bottom polycarbonate cages with access to standard laboratory diet (Laboratory Rodent Diet PK-120) and tap water ad libitum, under controlled environmental conditions (temperature:18-26° C., 8 a.m. to 8 p.m. light-dark cycle). Mice were tested only once.
The Hot-plate-meter represents the thermostatic controllable, electro-heated up surface limited by transparent walls (L: 25 cm, W: 25 cm, H: 35 cm). The forward panel of the device is equipped by buttons for the control of time and a temperature mode (Columbus Instruments).
The i.v. administration was performed via tail vein as a bolus injection. The doses for all animals were calculated on the basis of the last value of the individual body weight.
The animals accurately were placed on the preheated hot plate (55±0.5° C.) after i.v. injection of saline or peptides and the latencies to first paw licking and first jumping were measured. The other behavioral reactions were ignored. The animals were removed from a hot surface after the first jumping. A cut-off time of 180 s was used to avoid tissue damage.
To evaluate the hot-plate test responses, the control latencies (t0) and test latencies (t1) were determined after injection of saline or peptides, respectively. The percentage of the maximal possible effect (% MPE) was calculated as % MPE=(t1−t0)/(t2−t0)×100, where the cut-off time (t2) was 180 s.
The latency for the first jumping is considered as the most indicative in the hot-plate test. The area under the time-response curve was calculated by methods described elsewhere (Cicero and Meyer, 1973), to assess the magnitude of antinociception (FIG. 5, see appendix).
The median analgesic dose (ED50) also has been calculated for this parameter.

[4] = system: rats with ligature of coronary arteries; type: in vivo, rat; parameters: myocardial necrosis size: unit not given here; settings: for CPK / HF-CPK / Lactate: blood; for Lethality %: rats with sharp myocardial ischemia
[5] = system: BALB mice under normobaric hypoxic hypoxia; assay: Antihypoxic action, lifetime of mice under normobaric hypoxic hypoxia; type: in vivo, mouse
Experimental: Antihypoxic action of the new enkephalin analogue (1) was determined by the measurement of lifetime duration in mice under the normobaric hypoxic hypoxia conditions.
The experiments were conducted on BALB-bread mice weighing 20 to 22 g. The normobaric hypoxic hypoxia conditions were modelled by placing the animals in hermetic camera, containing Ca(OH)2 to absorb the excess of carbon dioxide. The substances studied were injected intraperitoneally 1 min. before the placing of animals in the hermetic camera. The peptides were used at doses 1.0 mg/kg. […] Sodium oxybutyrate at highest therapeutic dose was used as comparative compound. The lifetime was estimated as the time when the animals stopped making breathing movements.

outbreed male mice = assay: Analgesic activity in vivo, tail pinch method; parameters: species or system mouse
Experimental: Analgesic activity of enkephalin analogues was determined by a “tail pinch” method [Ueda H.; Amano H.; Shiomi H.; Takagi H. (1979). Eur. J. Pharmacol., 56, 265-268]. […] Ten mice were used in each experiment.
The studied substances were dissolved in sterile physiological solution and injected in J-shaped needles into the brain of conscious mice at a dose of 10 μl. Control animals received 10 μl of sterile physiological solution. Intravenous administration was into the tail vein. Analgesic activity was tested by pinching the mouse tail with an artery clip with 200 g pressure. The mice who bit the clip within one second after application of pinching were selected for assays. Analgesic activity was defined as latency on the biting response greater than 6 sec. The analgesic tests were performed 5, 15, 30, 60 and 90 min after administration and then every 30 min until the analgesic reaction was stopped. The analgesic activity of the peptides was expressed as a percentage of mice not showing the biting response.

[6] = 6 hours after ligature, compound (1) 0.05 mg/kg
[7] = 24 hours after ligature, compound (1) 0.05 mg/kg, nitroglycerine highest therapeutic dose

For `CC(=O)NCCCC(NC(=O)C(N)Cc1ccc(O)cc1)C(=O)NCC(=O)NC(Cc1ccc([N+](=O)[O-])cc1)C(N)=O` [Peptide 1, Tyr-(N^δ—Ac)-D-Orn-Gly-Phe(p-NO2)—NH2], the “activity compared with morphine” value [1] was “more active than morphine by one order”, the GPIrel/MVDrel [2] was 46 and the “MVD Relative potency, %” value ([3]; [Leu^5]-enkephalin = 100) was 52%. For the same compound, the IC50 ([3]; mouse vas deferens, electrical stimulation) was 38.5 ± 20.1 nM, the “ED50 (jump latency)” value (CD-1 male mice; intravenous administration, time point of 15 min) was 1.27 mg/kg and the “analgesic activity exceeding that of morphine” value (CD-1 male mice; intravenous, from ED50 at 15 min) was 2 times. For the same compound, the myocardial necrosis size ([4]; 0.05 mg/kg i.p. 30 min after coronary occlusion, observation time 6 hours) was 40.70 ± 1.52, the myocardial necrosis size ([4]; 0.05 mg/kg i.p. 30 min after coronary occlusion, observation time 12 hours) was 47.51 ± 1.63 and the myocardial necrosis size ([4]; 0.5 mg/kg i.p. 30 min after coronary occlusion, observation time 6 hours) was 40.05 ± 1.93. For the same compound, the myocardial necrosis size ([4]; 0.5 mg/kg i.p. 30 min after coronary occlusion, observation time 12 hours) was 46.64 ± 2.20, the Glycogen of heart [4, 6] was 1.00 ± 0.12 g/kg and the Glycogen of liver [4, 6] was 6.98 ± 1.02 g/kg. It also gave a Glycogen of heart ([4]; 24 hours after ligature, compound (1) 0.05 mg/kg) of 1.11 ± 0.17 g/kg, a CPK [4, 6] of 93.5 ± 5.3 units/l and an HF-CPK [4, 6] of 15.3 ± 0.7 units/l. It also gave a Lactate [4, 6] of 1.61 ± 0.45 mmol/L, a CPK [4, 7] of 86.6 ± 4.9 units/l and an HF-CPK [4, 7] of 12.3 ± 0.7 units/l. It also gave a Lactate [4, 7] of 1.70 ± 0.09 mmol/L, a Lethality % ([4]; 0.05 mg/kg) of 33% and a Lethality % ([4]; 0.5 mg/kg) of 27%. The “lifetime longer than in the control experiments” value ([5]; 1.0 mg/kg i.p.) was 57%, the Duration of life ([5]; 1.0 mg/kg i.p. 1 min before hermetic chamber) was 16.9 ± 1.1 min and the “Duration of analgesic effect at ED60-80” value (outbreed male mice; intracisternal administration) was 120 min. For the same compound, the “ED50 nmol/animal (dose interval)” value (outbreed male mice; intracisternal administration) was 0.02 (0.01-0.04) nmol/animal, the “Relative analgesic activity morphine = 1” value (outbreed male mice; intracisternal administration) was 60 and the “Duration of analgesic effect at ED60-80” value (outbreed male mice; intravenous administration) was 60 min. For the same compound, the “ED50 μmol/kg (dose interval)” value (outbreed male mice; intravenous administration) was 8.0 (0-25) μmol/kg and the “Relative analgesic activity morphine = 1” value (outbreed male mice; intravenous administration) was 2 and 2.2.
